From article PMC4501412 (Memórias do Instituto Oswaldo Cruz, 2015)

Columns and labels:
[1] = ref Ferreiro et al. 2002; cited from earlier work
[2] = test system: Salmonella typhimurium; conditions: ref Rosenkranz Jr et al. 1976; cited from earlier work
[3] = test system: Bloodstream trypomastigotes of T. cruzi (Y strain); assay: In vitro trypanocidal assay; type: cell-based; conditions: Trypanosoma cruzi, 24 h, read-out: IC50/24 h
[4] = test system: DNA damage in human whole blood cells; assay: In vitro alkaline single cell gel electrophoresis; type: cell-based; conditions: positive control, 160 µM

SMILES: Cc1ncc([N+](=O)[O-])n1CC(O)CCl (centres unmarked) [Compound 4, ornidazole]
- Mutagenicity (in words) [1]: known to be a mutagenic agent

SMILES: O=C(Cn1ccnc1[N+](=O)[O-])NCc1ccccc1 [Compound 8, benznidazole]
- Ames test result [2]: positive
- IC50 [3]: 9.7 ± 2.4 µM

SMILES: COS(C)(=O)=O [MMS, Methyl methane-sulfonate]
- TAU value (total DNA damage score) [4]: 454.3 ± 9.2 TAU
- TAU value (total DNA damage score) ([4]; listed as methyl methane-sulfonate): MI: mutagenicity inde; NA: not applicable; TAU: total arbitrary units for the positive control, methyl methane-sulfonate value was 454.3 ± 9.2.
